Measured values reported in publication PMC12186843, “Targeting GABAergic Hypofunction Associated with Schizophrenia: Identification of α1β2γ2GABA‑A Receptor Ligands with Neuroprotective and Antipsychotic Properties” (ACS Chemical Neuroscience, 2025).
Several values for one entry are separate records, joined by “and”; a condition that tells them apart may be missing. Equal values may be shown once. Where a name gives a salt, the structure may show the parent alone.

Key:
GABA-A receptor = assay: Radioligand binding at the GABA-A receptor; design: species or system rat; conditions: mean of two-three independent experiments; read-out: GABA-A Ki ± SEM
Method: The study was conducted in accordance with previously established protocols, and performed in duplicate. Rat brains were homogenized and prepared following the described methodologies. The assay was carried out directly on 96-well microplates containing 50 mM Tris-HCl buffer (pH 7.4) in a total volume of 300 μL. […] To determine nonspecific binding, 100 μM GABA was included in the mixture. The 96-well microplates were incubated at 0 °C for 10 min, followed by rapid filtration through FilterMate B glass fiber filters (PerkinElmer, USA) using a Harvester-96 MACH III FM (Tomtec, USA). The filters were gently dried in a microwave and sealed in plastic bags (PerkinElmer, USA). Each filter was then immersed in 10 mL of Ultima Gold MV liquid scintillation cocktail (PerkinElmer, USA). […] Ki values were calculated using the Cheng and Prusoff equation, and statistical analyses were conducted using GraphPad Prism (version 4.0, San Diego, CA, USA)

α1β2γ2 GABA-A receptor = target: T1, α1β2γ2 GABA-A receptor (Homo sapiens, UniProt P14867+P18507); assay: Electrophysiological studies (QPatch16X automated patch-clamp), PAM efficacy; format: cell-based
T1 construct: expressed in transfected cells

PAMPA permeability assay = format: in vitro ADME; conditions: PBS pH 7.4, 100 μM, zolpidem tested as tartrate; for Permeability Pe ± SD: 5 h; for Papp at 5 h, 100 μM: pH 7.4, PAMPA, read-out: Permeability Pe ± SD
Method: PAMPA. The precoated PAMPA Plate System Gentest, obtained from Corning (Tewksbury, MA, USA), was used for the permeability study. The system includes a 96-well receiver filter plate precoated with structured phospholipid layers and a matching donor microplate. Stock solutions of the test compounds and reference drugs were prepared in PBS buffer (pH 7.4) at a final concentration of 100 μM. Each compound solution (200 μL) was added to the donor wells and incubated at room temperature for 5 h. The quantity of molecules that penetrated from the donor wells to the acceptor wells through the phospholipid membrane was determined using UPLC-MS spectrometry (Waters ACQUITY TQD system with the TQ Detector, Waters, Milford, USA) with an internal standard. Permeability coefficients (Pe, cm/s) were calculated according to the formula provided by the manufacturer.

SH-SY5Y cells [1] = assay: Intracellular calcium concentration after 6-OHDA (Fluo-4); format: cell-based, human; conditions: 50 μM pretreatment 1 h, then 6-OHDA 250 μM 1 h
Method: 7 (A). Effect of 6-Hydroxydopamine (6-OHDA) on intracellular calcium concentration [Ca^2+] determined by Fluo-4 AM. After pretreatment with tested compounds (50 μM) or vehicle (0.5% DMSO, v/v) for 1 h, the cells were incubated with 6-Hydroxydopamine (6-OHDA, 250 μM) for 1 h. 6-OHDA control: cells treated with 250 μM of 6-OHDA. […]. DMSO control: cells treated with 0.5% DMSO only. Data are presented as the mean ± SD from 2–3 independent experiments. Experiments were carried on with ImageXpress Micro XLS (Molecular Devices). (B) The level of ROS generation was determined by Cell ROX dye. After pretreatment with tested compounds (50 μM) or vehicle (0.5% DMSO, v/v) for 1 h, the cells were incubated with hydrogen peroxide (H2O2, 300 μM) for 1 h. H2O2 control: cells treated with H2O2 (300 μM). DMSO control: cells treated with 0.5% DMSO only. Data are presented as the mean ± SD from 2–3 independent experiments. Experiments were carried on with the ImageXpress Micro XLS (Molecular Devices).
The SH-SY5Y human neuroblastoma cell line was maintained according to established protocols. The cells, obtained from the American Type Culture Collection (ATCC), were cultured in Dulbecco’s Modified Eagle’s Medium (DMEM, high glucose; Thermo Fisher), supplemented with 10% fetal bovine serum (Thermo Fisher), 100 IU/ml penicillin (Merck), and 100 μg/mL streptomycin (Merck). They were grown in 75 cm^2 flasks (Nunc) at 37 °C in a humidified atmosphere containing 5% CO2. For compound evaluation, SH-SY5Y cells were plated in 96-well plates (Falcon) at a density of 2 × 10^4 cells per well. The cells were allowed to adhere and grow for 24 h in an incubator set to 37 °C and 5% CO2 before starting the experiments. Stock solutions of both test and reference compounds were prepared at a concentration of 10^–2 M. A minimum of 1 mg of each compound was dissolved in dimethyl sulfoxide (DMSO). Serial dilutions were made in DMSO, then further diluted in PBS, mixed, and added to the cell culture medium.
The intracellular Ca^2+ levels were assessed using a homogeneous cell-based assay with the Fluo-4 Direct Calcium Assay Kit (Thermo Fisher). Following incubation with the tested compounds, the supernatant was discarded, and the cells were incubated with 1 μM Fluo-4/AM in FluoroBrite DMEM (Thermo Fisher) for 1 h at 37 °C. The results were expressed as a percentage relative to the control (DMSO). Fluorescence intensity was recorded using the ImageXpress Micro XLS system (Molecular Devices).

SH-SY5Y cells [2] = assay: ToxiLight assay (cell membrane damage); format: cell-based; conditions: Table S1, 24 h
Method: Damage to the cell membrane was assessed using the bioluminescent ToxiLight bioassay (Lonza), a profound method for detecting cell toxicity. Following 24 h of treatment, 5 μL of the supernatant above the sediment was transferred to a 384-well plate (PerkinElmer). Subsequently, 20 μL of Adenylate Kinase Detection Reagent (AKDR) was added to each well. Luminescence was recorded after a 10 min incubation period using a POLARstar Omega plate reader (BMG Labtech). Results are presented as a percentage relative to the control sample (cells lysed), reflecting the proportion of dead cells compared to the control.
(§1) 1. Cytotoxicity studies for selected compounds
Table S1. The viability of the cells SH-SY5Y after treatment with tested compounds for 24 the results are expressed as a percentage of dead cells with luminescence ToxiLight Assay. The results are expressed as a per cent of control with whole lysis cells. N.C. not countable […]
Table S2. The viability of the cells SH-SY5Y after treatment with tested compounds for 24 h the results are expressed as a percentage of live cells with fluorescence PrestoBlue Assay. The results are expressed as a per cent of vehicle (DMSO). […]

SH-SY5Y cells [3] = assay: PrestoBlue cell viability assay; format: cell-based; conditions: Table S2, 24 h
Method: Cell viability was determined using the Presto Blue reagent (ThermoFisher) following the manufacturer’s instructions.
as §1
Table S1. The viability of the cells SH-SY5Y after treatment with tested compounds for 24 the results are expressed as a percentage of dead cells with luminescence ToxiLight Assay. The results are expressed as a per cent of control with whole […]
percentage of live cells with fluorescence PrestoBlue Assay. The results are expressed as a per cent of vehicle (DMSO).

T1 sequence (P14867 28-456): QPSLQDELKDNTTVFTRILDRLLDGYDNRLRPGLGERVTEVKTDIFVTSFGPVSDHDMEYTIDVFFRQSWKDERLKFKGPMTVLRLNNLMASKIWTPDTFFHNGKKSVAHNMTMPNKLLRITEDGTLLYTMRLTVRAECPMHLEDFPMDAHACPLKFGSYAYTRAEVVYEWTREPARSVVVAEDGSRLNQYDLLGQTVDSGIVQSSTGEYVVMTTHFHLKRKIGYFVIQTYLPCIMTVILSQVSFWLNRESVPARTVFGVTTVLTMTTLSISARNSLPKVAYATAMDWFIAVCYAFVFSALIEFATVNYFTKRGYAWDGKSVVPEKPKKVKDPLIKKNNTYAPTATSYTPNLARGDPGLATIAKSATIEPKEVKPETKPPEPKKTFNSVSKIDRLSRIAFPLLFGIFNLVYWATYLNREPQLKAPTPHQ
T1 sequence (P47870 25-512 partner limits assumed): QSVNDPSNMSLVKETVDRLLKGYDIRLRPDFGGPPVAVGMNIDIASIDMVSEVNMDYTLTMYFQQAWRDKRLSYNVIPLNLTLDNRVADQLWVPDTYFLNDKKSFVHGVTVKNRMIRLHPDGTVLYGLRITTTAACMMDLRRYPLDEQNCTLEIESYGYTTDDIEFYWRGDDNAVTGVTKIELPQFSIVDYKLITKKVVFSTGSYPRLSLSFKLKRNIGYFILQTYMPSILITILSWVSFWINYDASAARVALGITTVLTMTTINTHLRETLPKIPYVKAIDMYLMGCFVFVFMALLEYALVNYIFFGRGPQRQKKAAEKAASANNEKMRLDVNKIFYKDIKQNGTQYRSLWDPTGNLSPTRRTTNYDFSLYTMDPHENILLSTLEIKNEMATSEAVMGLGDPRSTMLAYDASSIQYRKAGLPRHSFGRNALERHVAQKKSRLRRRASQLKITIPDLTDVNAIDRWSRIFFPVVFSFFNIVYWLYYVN
T1 sequence (P18507 40-475): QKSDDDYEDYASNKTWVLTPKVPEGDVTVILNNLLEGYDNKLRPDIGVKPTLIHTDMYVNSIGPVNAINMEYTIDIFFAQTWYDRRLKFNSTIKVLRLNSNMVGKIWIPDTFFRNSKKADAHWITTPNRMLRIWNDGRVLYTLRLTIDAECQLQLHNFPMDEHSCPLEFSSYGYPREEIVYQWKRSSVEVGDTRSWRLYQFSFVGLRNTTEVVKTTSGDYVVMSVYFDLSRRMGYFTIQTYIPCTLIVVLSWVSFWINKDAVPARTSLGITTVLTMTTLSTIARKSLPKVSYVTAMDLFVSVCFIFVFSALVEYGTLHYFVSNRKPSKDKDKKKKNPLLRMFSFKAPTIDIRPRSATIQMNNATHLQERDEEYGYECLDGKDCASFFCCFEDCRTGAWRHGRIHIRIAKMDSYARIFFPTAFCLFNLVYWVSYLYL

In the case of `Cc1ccc2nc(-c3ccc(F)cc3)c(CC(=O)N3CC4CCCCC4C3)n2c1` (stereo not shown) [Compound 12, 2-[2-(4-Fluorophenyl)-6-methylimidazo[1,2-a]pyridin-3-yl]-1-(octahydro-1H-isoindol-2-yl)ethan-1-one], the Ki (GABA-A receptor) is reported as 517 ± 61.2 nM.

For `Cc1ccc2nc(-c3ccc(F)cc3)c(CC(=O)N3CCN(C4CC4)CC3)n2c1` [Compound 9, 1-(4-Cyclopropylpiperazin-1-yl)-2-[2-(4-fluorophenyl)-6-methylimidazo[1,2-a]pyridin-3-yl]ethan-1-one], the Ki (GABA-A receptor) was 1340 ± 46 nM.

In the case of `Cc1ccc2nc(-c3ccc(F)cc3)c(CC(=O)N3CCSC3)n2c1` [Compound 15, 2-[2-(4-Fluorophenyl)-6-methylimidazo[1,2-a]pyridin-3-yl]-1-(1,3-thiazolidin-3-yl)ethan-1-one], the EC50 (α1β2γ2 GABA-A receptor) is reported as 743 ± 136 nM, the “Permeability Pe ± SD” value (PAMPA permeability assay) is reported as 7.89 ± 1.35 ·10^–6 cm/s and the Papp at 5 h, 100 μM (PAMPA permeability assay) is reported as greater than 4 ×10⁻⁶ cm/s. For the same compound, the “Reduction of intracellular calcium levels” value (SH-SY5Y cells [1]) was no more than 50%, the “X [%], percentage of dead cells, ToxiLight Assay (per cent of control with whole lysis cells)” value (SH-SY5Y cells [2]; 1E-04 M) was 67% and the “X [%], percentage of dead cells, ToxiLight Assay (per cent of control with whole lysis cells)” value (SH-SY5Y cells [2]; 1E-05 M) was 108%. The “X [%], percentage of dead cells, ToxiLight Assay (per cent of control with whole lysis cells)” value (SH-SY5Y cells [2]; 1E-06 M) was 110%, the “X [%], percentage of dead cells, ToxiLight Assay (per cent of control with whole lysis cells)” value (SH-SY5Y cells [2]; 1E-07 M) was 107% and the “X [%], percentage of dead cells, ToxiLight Assay (per cent of control with whole lysis cells)” value (SH-SY5Y cells [2]; 1E-08 M) was 108%. The “X [%], percentage of dead cells, ToxiLight Assay (per cent of control with whole lysis cells)” value (SH-SY5Y cells [2]; 1E-09 M) was 101%, the “X [%], percentage of dead cells, ToxiLight Assay (per cent of control with whole lysis cells)” value (SH-SY5Y cells [2]; 3E-05 M) was 96% and the “X [%], percentage of dead cells, ToxiLight Assay (per cent of control with whole lysis cells)” value (SH-SY5Y cells [2]; 3E-06 M) was 105%. For the same compound, the “X [%], percentage of live cells, PrestoBlue Assay (per cent of vehicle DMSO)” value (“X [%], percentage … (per cent of vehicle DMSO)” for short) (SH-SY5Y cells [3]; 1E-04 M) was 14%, the “X [%], percentage … (per cent of vehicle DMSO)” value (SH-SY5Y cells [3]; 1E-05 M) was 12% and the “X [%], percentage … (per cent of vehicle DMSO)” value (SH-SY5Y cells [3]; 1E-06 M) was 16%. The “X [%], percentage … (per cent of vehicle DMSO)” value (SH-SY5Y cells [3]; 1E-07 M) was 14%, the “X [%], percentage … (per cent of vehicle DMSO)” value (SH-SY5Y cells [3]; 1E-08 M) was 15% and the “X [%], percentage … (per cent of vehicle DMSO)” value (SH-SY5Y cells [3]; 1E-09 M) was 14%. For the same compound, the “X [%], percentage … (per cent of vehicle DMSO)” value (SH-SY5Y cells [3]; 3E-05 M) was 15% and the “X [%], percentage … (per cent of vehicle DMSO)” value (SH-SY5Y cells [3]; 3E-06 M) was 15%.

In the case of `Cc1ccc2nc(-c3ccc(F)cc3)c(CC(=O)N3CCSC3(C)C)n2c1` [Compound 14, 1-(2,2-Dimethyl-1,3-thiazolidin-3-yl)-2-[2-(4-fluorophenyl)-6-methylimidazo[1,2-a]pyridin-3-yl]ethan-1-one], the Ki (GABA-A receptor) is reported as 551 nM and 552 nM.

With `CCN1CCCC1CNC(=O)c1cc(S(N)(=O)=O)ccc1OC` (stereo not shown) [sulpiride, reference compound] the “Permeability Pe ± SD” value (PAMPA permeability assay) was 0.016 ± 0.003 ·10^–6 cm/s.

In the case of `Cc1ccc2nc(-c3ccc(F)cc3)c(CC(=O)N3CCN(CC(C)C)CC3)n2c1` [Compound 10, 2-[2-(4-Fluorophenyl)-6-methylimidazo[1,2-a]pyridin-3-yl]-1-[4-(2-methylpropyl)piperazin-1-yl]ethan-1-one], the Ki (GABA-A receptor) is reported as 3330 ± 374 nM.

`Cc1ccc2nc(-c3ccc(F)cc3)c(CC(=O)N3CCCCCC3)n2c1` [Compound 13, 1-(Azepan-1-yl)-2-(2-(4-fluorophenyl)-6-methylimidazo[1,2-a]pyridin-3-yl)ethan-1-one] showed a Ki (GABA-A receptor) of 453 ± 59.3 nM.

With `Cc1ccc2nc(-c3ccc(F)cc3)c(CC(=O)N3CCN(C(C)C)CC3)n2c1` [Compound 8, 2-[2-(4-Fluorophenyl)-6-methylimidazo[1,2-a]pyridin-3-yl]-1-[4-(propan-2-yl)piperazin-1-yl]ethan-1-one] the Ki (GABA-A receptor) was 5230 ± 510 nM.

With `Cc1ccc2nc(-c3ccc(F)cc3)c(CC(=O)N3CCN(C)CC3)n2c1` [Compound 4, 2-[2-(4-Fluorophenyl)-6-methylimidazo[1,2-a]pyridin-3-yl]-1-(4-methylpiperazin-1-yl)ethan-1-one formate salt] the Ki (GABA-A receptor) was 278 ± 43 nM.

Compound `CN1C(=O)CN=C(c2ccccc2)c2cc(Cl)ccc21` [diazepam, reference compound] has a Ki (GABA-A receptor) of 5.6 ± 0.7 nM.

`Cc1ccc2nc(-c3ccc(F)cc3)c(CC(=O)N3CCNCC3)n2c1` [Compound 5, 2-[2-(4-Fluorophenyl)-6-methylimidazo[1,2-a]pyridin-3-yl]-1-(piperazin-1-yl)ethan-1-one] showed a Papp at 5 h, 100 μM (PAMPA permeability assay) of 3.35 ± 0.4 ×10⁻⁶ cm/s.

For `Cc1ccc2nc(-c3ccc(F)cc3)c(CC(=O)N3CCN(C(C)(C)C)CC3)n2c1` [Compound 11, 1-(4-tert-Butylpiperazin-1-yl)-2-[2-(4-fluorophenyl)-6-methylimidazo[1,2-a]pyridin-3-yl]ethan-1-one], the Ki (GABA-A receptor) was 7820 ± 1720 nM.

`Cc1ccc2nc(-c3ccc(F)cc3)c(CC(=O)N3CCC(C)CC3)n2c1` [Compound 7, 2-[2-(4-Fluorophenyl)-6-methylimidazo[1,2-a]pyridin-3-yl]-1-(4-methylpiperidin-1-yl)ethan-1-one] showed a Ki (GABA-A receptor) of 204 ± 20.6 nM.

With `Cc1ccc2nc(-c3ccc(F)cc3)c(CC(=O)NC3CCNC3)n2c1` (stereo not shown) [Compound 16, 2-[2-(4-Fluorophenyl)-6-methylimidazo[1,2-a]pyridin-3-yl]-N-(pyrrolidin-3-yl)acetamide] the Ki (GABA-A receptor) was < 200 nM and 140 nM and the Papp at 5 h, 100 μM (PAMPA permeability assay) was 0.154 ± 0.005 ×10⁻⁶ cm/s.
